Measurements published in patent US8748421B2, “Triazine compounds as P13 kinase and MTOR inhibitors” (Wyeth LLC, priority 2009, dated 2014).

Legend:
[1] = test system: human breast MDA-MB-361 tumor cell line; test: In vitro cell culture growth assay (MTS), MDA-MB-361; assay type: cell-based; details: 72 h, human breast MDA-MB-361 cells, three days after drug treatment
[2] = test system: human prostate PC3-mm2 tumor cell line; test: In vitro cell culture growth assay (MTS), PC3-mm2; assay type: cell-based; details: PC3MM2, 72 h, human prostate PC3-mm2 cells, three days after drug treatment
[3] = test system: acute lymphoblastic leukemia xenograft; details: NOS/SCID mouse; cited from earlier work
[4] = test system: human tumor xenograft models; details: chronic oral administration, 400 mg/kg; A549, PC-3, WiDr; cited from earlier work
human SMG-1 (hSMG-1) = human SMG-1 (hSMG-1) (Homo sapiens, UniProt Q96Q15); test: hSMG-1 kinase assay (DELFIA); assay type: biochemical
PI3K-alpha = PI3K-alpha (Homo sapiens, UniProt P42336); test: PI3K-alpha fluorescence polarization assay; details: read-out: IC50 PI3Kα
PI3K-gamma = PI3K-gamma (Homo sapiens, UniProt P48736); test: PI3K-gamma fluorescence polarization assay; details: read-out: IC50 PI3Kγ
[5] = test system: human prostate LNCap tumor cell line; test: In vitro cell culture growth assay (MTS), LNCap; details: 72 h, read-out: IC50 LNCap

Sequence of PI3K-gamma (P48736 whole entry, species assumed): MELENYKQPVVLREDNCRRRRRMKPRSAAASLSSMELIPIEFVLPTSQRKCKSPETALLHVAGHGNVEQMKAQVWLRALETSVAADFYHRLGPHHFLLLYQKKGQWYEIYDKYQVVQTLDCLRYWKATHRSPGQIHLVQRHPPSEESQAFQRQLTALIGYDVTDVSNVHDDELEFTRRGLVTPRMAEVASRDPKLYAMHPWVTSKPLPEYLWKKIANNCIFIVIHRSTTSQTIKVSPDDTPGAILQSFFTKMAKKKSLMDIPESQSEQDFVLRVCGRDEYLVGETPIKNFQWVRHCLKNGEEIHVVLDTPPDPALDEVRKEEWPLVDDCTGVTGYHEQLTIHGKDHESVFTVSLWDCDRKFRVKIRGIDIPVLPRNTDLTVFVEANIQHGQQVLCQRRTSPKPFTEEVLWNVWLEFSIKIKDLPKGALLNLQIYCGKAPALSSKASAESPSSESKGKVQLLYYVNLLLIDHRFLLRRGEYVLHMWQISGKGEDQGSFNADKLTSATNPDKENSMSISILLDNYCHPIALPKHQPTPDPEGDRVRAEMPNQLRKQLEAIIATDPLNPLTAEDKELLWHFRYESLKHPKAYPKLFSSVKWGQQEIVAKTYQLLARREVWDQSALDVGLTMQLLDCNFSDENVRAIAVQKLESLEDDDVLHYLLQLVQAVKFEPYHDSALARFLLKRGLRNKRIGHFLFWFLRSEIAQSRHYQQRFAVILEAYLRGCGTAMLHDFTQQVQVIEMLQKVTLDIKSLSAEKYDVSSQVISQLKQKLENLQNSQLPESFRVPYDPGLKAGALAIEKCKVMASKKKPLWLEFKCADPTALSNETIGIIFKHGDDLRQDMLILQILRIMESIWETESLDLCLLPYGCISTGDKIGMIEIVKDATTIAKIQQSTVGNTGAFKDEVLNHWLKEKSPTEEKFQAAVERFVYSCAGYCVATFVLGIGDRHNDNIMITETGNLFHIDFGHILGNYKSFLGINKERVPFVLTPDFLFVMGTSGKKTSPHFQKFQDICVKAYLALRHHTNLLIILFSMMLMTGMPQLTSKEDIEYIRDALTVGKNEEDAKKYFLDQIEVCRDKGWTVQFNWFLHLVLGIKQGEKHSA
Sequence of PI3K-alpha (P42336 whole entry, species assumed): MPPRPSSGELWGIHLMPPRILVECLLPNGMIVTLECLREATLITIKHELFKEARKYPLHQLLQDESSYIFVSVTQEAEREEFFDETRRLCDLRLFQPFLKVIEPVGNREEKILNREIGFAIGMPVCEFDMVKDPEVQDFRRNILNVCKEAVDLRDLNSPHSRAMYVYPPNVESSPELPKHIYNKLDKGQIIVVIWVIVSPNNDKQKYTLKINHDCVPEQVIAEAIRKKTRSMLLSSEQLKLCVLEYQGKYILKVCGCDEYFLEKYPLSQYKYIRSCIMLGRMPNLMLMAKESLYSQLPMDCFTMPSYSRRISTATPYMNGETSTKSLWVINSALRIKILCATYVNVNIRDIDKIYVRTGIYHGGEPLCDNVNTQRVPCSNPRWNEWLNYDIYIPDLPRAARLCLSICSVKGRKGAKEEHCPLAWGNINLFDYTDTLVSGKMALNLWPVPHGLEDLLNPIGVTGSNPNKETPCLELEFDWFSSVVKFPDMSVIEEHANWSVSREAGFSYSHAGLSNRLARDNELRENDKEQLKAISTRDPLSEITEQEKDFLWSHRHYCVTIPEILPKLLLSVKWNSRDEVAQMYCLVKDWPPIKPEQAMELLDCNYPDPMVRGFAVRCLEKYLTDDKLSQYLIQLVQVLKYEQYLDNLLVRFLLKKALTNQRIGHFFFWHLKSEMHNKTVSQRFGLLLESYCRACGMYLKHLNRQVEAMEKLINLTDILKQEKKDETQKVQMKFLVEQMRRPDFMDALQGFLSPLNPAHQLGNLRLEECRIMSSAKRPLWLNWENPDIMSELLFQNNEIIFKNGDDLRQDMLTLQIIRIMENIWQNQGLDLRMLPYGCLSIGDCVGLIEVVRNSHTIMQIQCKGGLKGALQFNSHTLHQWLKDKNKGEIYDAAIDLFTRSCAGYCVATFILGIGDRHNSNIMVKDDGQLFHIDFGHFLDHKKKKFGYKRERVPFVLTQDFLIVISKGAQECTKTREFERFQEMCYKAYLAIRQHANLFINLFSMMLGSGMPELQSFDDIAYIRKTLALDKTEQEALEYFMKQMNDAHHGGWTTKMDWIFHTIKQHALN
Sequence of PI3K-alpha (P27986 whole entry partner, species assumed): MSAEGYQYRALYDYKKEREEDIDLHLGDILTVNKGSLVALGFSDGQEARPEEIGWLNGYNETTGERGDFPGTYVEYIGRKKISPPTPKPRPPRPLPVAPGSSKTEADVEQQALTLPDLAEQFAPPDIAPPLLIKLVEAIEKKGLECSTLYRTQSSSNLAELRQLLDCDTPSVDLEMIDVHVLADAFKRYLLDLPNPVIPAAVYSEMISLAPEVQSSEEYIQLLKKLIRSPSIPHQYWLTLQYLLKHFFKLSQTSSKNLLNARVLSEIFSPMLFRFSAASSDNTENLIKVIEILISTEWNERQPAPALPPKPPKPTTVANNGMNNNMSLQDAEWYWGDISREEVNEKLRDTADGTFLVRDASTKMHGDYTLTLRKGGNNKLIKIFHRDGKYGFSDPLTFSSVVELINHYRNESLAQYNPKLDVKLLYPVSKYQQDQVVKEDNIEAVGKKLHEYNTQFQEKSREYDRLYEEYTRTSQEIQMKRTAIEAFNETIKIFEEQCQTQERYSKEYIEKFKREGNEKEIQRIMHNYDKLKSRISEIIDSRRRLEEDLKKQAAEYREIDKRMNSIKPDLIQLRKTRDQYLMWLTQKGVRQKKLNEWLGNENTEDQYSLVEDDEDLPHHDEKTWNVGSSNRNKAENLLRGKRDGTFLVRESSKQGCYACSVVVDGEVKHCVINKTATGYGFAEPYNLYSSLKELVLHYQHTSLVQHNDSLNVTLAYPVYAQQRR

Row | Structure (SMILES) | IC50 (PI3K-alpha) [nM] | IC50 (PI3K-gamma) [nM] | other results
1 | CN(C)CCNC(=O)c1ccc(NC(=O)Nc2ccc(-c3nc(N4CCCCC4)nc(N4CCOCC4)n3)cc2)cc1 [Example 601, N-[2-(dimethylamino)ethyl]-4-({[4-(4-morpholin-4-yl-6-piperidin-1-yl-1,3,5-triazin-2-yl)phenyl]carbamoyl}amino)benzamide] |  |  | IC50 [1]: 22 nM; IC50 [2]: 155 nM
2 | CO[C@H]1C[C@@H]2CC[C@@H](C)[C@@](O)(O2)C(=O)C(=O)N2CCCC[C@H]2C(=O)O[C@H]([C@H](C)C[C@@H]2CC[C@@H](OC(=O)C(C)(CO)CO)[C@H](OC)C2)CC(=O)[C@H](C)/C=C(\C)[C@@H](O)[C@@H](OC)C(=O)[C@H](C)C[C@H](C)/C=C/C=C/C=C/1C [Torisel] |  |  | activity in xenograft mouse model of acute lymphoblastic leukemia [3]: active
3 | FC(F)c1nc2ccccc2n1-c1nc(N2CCOCC2)nc(N2CCOCC2)n1 [ZSTK474, 2-(2-difluoromethylbenzoimidazol-1-yl)-4,6-dimorpholino-1,3,5-triazine] |  |  | tumor growth inhibition in mouse human xenograft cancer models [4]: completely inhibited growth
4 | CNC(=O)Nc1ccc(-c2nc(-c3ccc(NC(=O)Nc4ccc(C(N)=O)cc4)cc3)nc(N3CCOCC3)n2)cc1 [Example 462, 4-({[4-(4-{4-[(methylcarbamoyl)amino]phenyl}-6-morpholin-4-yl-1,3,5-triazin-2-yl)phenyl]carbamoyl}amino)benzamide] |  |  | IC50 (human SMG-1 (hSMG-1)): 1 nM
5 | CN1CCN(C(=O)c2ccc(NC(=O)Nc3ccc(-c4nc(C5CCOCC5)nc(N5CCOCC5)n4)cc3)cc2)CC1(C)C [Example 865, 1-{4-[4-(morpholin-4-yl)-6-(tetrahydro-2H-pyran-4-yl)-1,3,5-triazin-2-yl]phenyl}-3-{4-[(3,3,4-trimethylpiperazin-1-yl)carbonyl]phenyl}urea] | 2.45 | 12 | 
6 | CC(C)N1CCCN(c2nc(-c3ccc(NC(=O)Nc4ccc(C(=O)N(C)CCN(C)C)cc4)cc3)nc(N3CCOCC3)n2)CC1 [Example 858, N-[2-(dimethylamino)ethyl]-N-methyl-4-{[(4-{4-(morpholin-4-yl)-6-[4-(propan-2-yl)-1,4-diazepan-1-yl]-1,3,5-triazin-2-yl}phenyl)carbamoyl]amino}benzamide] | 5 | 134 | 
7 | CC(C)N1CCCN(c2nc(-c3ccc(NC(=O)Nc4ccc(C(=O)N5CC[C@H](N(C)C)C5)cc4)cc3)nc(N3CCOC[C@@H]3C)n2)CC1 [Example 856, 1-(4-{[(3S)-3-(dimethylamino)pyrrolidin-1-yl]carbonyl}phenyl)-3-(4-{4-[(3S)-3-methylmorpholin-4-yl]-6-[4-(propan-2-yl)-1,4-diazepan-1-yl]-1,3,5-triazin-2-yl}phenyl)urea] | 28.5 | 532 | 
8 | CN1CCN(C(=O)c2ccc(NC(=O)Nc3ccc(-c4nc(N5CCOCC5)nc(N5CCOCC5)n4)cc3)cc2)CC1(C)C [Example 848, 1-{4-[4,6-di(morpholin-4-yl)-1,3,5-triazin-2-yl]phenyl}-3-{4-[(3,3,4-trimethylpiperazin-1-yl)carbonyl]phenyl}urea] | 1.05 | 6 | 
9 | CC(C)N1CCCN(C(=O)c2ccc(NC(=O)Nc3ccc(-c4nc(N5CCOCC5)nc(N5CCCN(C(C)C)CC5)n4)cc3)cc2)CC1 [Example 862, 1-(4-{4-(morpholin-4-yl)-6-[4-(propan-2-yl)-1,4-diazepan-1-yl]-1,3,5-triazin-2-yl}phenyl)-3-(4-{[4-(propan-2-yl)-1,4-diazepan-1-yl]carbonyl}phenyl)urea] | 23.5 | 154 | 
10 | C[C@H]1CN(C(=O)c2ccc(NC(=O)Nc3ccc(-c4nc(N5CCOCC5)nc(N5CCOCC5)n4)cc3)cc2)CCN1 [Example 853, 1-{4-[4,6-di(morpholin-4-yl)-1,3,5-triazin-2-yl]phenyl}-3-(4-{[(3S)-3-methylpiperazin-1-yl]carbonyl}phenyl)urea] | 0.3 | 5.05 | 
11 | CN(C)[C@H]1CCN(C(=O)c2ccc(NC(=O)Nc3ccc(-c4nc(C5CCOCC5)nc(N5CCOCC5)n4)cc3)cc2)C1 [Example 869, 1-(4-{[(3S)-3-(dimethylamino)pyrrolidin-1-yl]carbonyl}phenyl)-3-{4-[4-morpholin-4-yl-6-(tetrahydro-2H-pyran-4-yl)-1,3,5-triazin-2-yl]phenyl}urea] | 0.6 | 6.5 | 
12 | CC(C)NC(=O)N1CC(Oc2nc(-c3ccc(NC(=O)Nc4ccncc4)cc3)nc(N3CCOCC3)n2)C1 [Example 836, N-(1-methylethyl)-3-[(4-morpholin-4-yl-6-{4-[(pyridin-4-ylcarbamoyl)amino]phenyl}-1,3,5-triazin-2-yl)oxy]azetidine-1-carboxamide] | 5 | 17.5 | 
13 | CNC(=O)Nc1ccc(-c2nc(-c3ccc(NC(=O)Nc4cccc(C(N)=O)c4)cc3)nc(N3CCOCC3)n2)cc1 [Example 466, 3-({[4-(4-{4-[(methylcarbamoyl)amino]phenyl}-6-morpholin-4-yl-1,3,5-triazin-2-yl)phenyl]carbamoyl}amino)benzamide] |  |  | IC50 [5]: 420 nM
14 | CN(C)CCN(C)C(=O)c1ccc(NC(=O)Nc2ccc(-c3nc(C4CCOCC4)nc(N4CCOCC4)n3)cc2)cc1 [Example 834, N-[2-(dimethylamino)ethyl]-N-methyl-4-[({4-[4-morpholin-4-yl-6-(tetrahydro-2H-pyran-4-yl)-1,3,5-triazin-2-yl]phenyl}carbamoyl)amino]benzamide] | 0.75 | 10 | 
15 | O=C(Nc1ccc(-c2nc(N3CCOCC3)nc(N3CCOCC3)n2)cc1)Nc1ccc(C(O)(C(F)(F)F)C(F)(F)F)cc1 [Example 86, 1-[4-(4,6-dimorpholin-4-yl-1,3,5-triazin-2-yl)phenyl]-3-{4-[2,2,2-trifluoro-1-hydroxy-1-(trifluoromethyl)ethyl]phenyl}urea] | 122 | 444 | 
16 | CC(C)N1CCCN(C(=O)c2ccc(NC(=O)Nc3ccc(-c4nc(N5CCOC[C@@H]5C)nc(N5CCOC[C@@H]5C)n4)cc3)cc2)CC1 [Example 838, 1-(4-{4,6-bis[(3S)-3-methylmorpholin-4-yl]-1,3,5-triazin-2-yl}phenyl)-3-(4-{[4-(1-methylethyl)-1,4-diazepan-1-yl]carbonyl}phenyl)urea] | 4.95 | 24.5 | 
17 | C[C@H]1CN(C(=O)c2ccc(NC(=O)Nc3ccc(-c4nc(N5CCOCC5)nc(N5CCOCC5)n4)cc3)cc2)CCN1C1CCC1 [Example 863, 1-(4-{[(3S)-4-cyclobutyl-3-methylpiperazin-1-yl]carbonyl}phenyl)-3-{4-[4,6-di(morpholin-4-yl)-1,3,5-triazin-2-yl]phenyl}urea] | 2.1 | 8 | 
18 | CC(C)N1CCCN(c2nc(-c3ccc(NC(=O)Nc4ccc(C(=O)N5CCN(C)CC5)cc4)cc3)nc(N3CCOC[C@@H]3C)n2)CC1 [Example 855, 1-(4-{4-[(3S)-3-methylmorpholin-4-yl]-6-[4-(propan-2-yl)-1,4-diazepan-1-yl]-1,3,5-triazin-2-yl}phenyl)-3-{4-[(4-methylpiperazin-1-yl)carbonyl]phenyl}urea] | 54 | 864 | 
19 | CN(C)[C@@H]1CCN(C(=O)c2ccc(NC(=O)Nc3ccc(-c4nc(C5CCOCC5)nc(N5CCOCC5)n4)cc3)cc2)C1 [Example 868, 1-(4-{[(3R)-3-(dimethylamino)pyrrolidin-1-yl]carbonyl}phenyl)-3-{4-[4-morpholin-4-yl-6-(tetrahydro-2H-pyran-4-yl)-1,3,5-triazin-2-yl]phenyl}urea] | 0.65 | 4.5 | 
20 | CC(C)N1CCN(C(=O)c2ccc(NC(=O)Nc3ccc(-c4nc(C5CCOCC5)nc(N5CCOCC5)n4)cc3)cc2)CC1 [Example 833, 1-(4-{[4-(1-methylethyl)piperazin-1-yl]carbonyl}phenyl)-3-{4-[4-morpholin-4-yl-6-(tetrahydro-2H-pyran-4-yl)-1,3,5-triazin-2-yl]phenyl}urea] | 2.58 | 8.25 | 
21 | C[C@H]1COCCN1c1nc(-c2ccc(NC(=O)Nc3ccc(C(=O)N4CCC(C#N)CC4)cc3)cc2)nc(N2CCOC[C@@H]2C)n1 [Example 840, 1-(4-{4,6-bis[(3S)-3-methylmorpholin-4-yl]-1,3,5-triazin-2-yl}phenyl)-3-{4-[(4-cyanopiperidin-1-yl)carbonyl]phenyl}urea] | 5.15 | 15 | 
22 | CC(C)N1CCCN(c2nc(-c3ccc(NC(=O)Nc4ccc(C(=O)N5CCNCC5)cc4)cc3)nc(N3CCOCC3)n2)CC1 [Example 846, 1-(4-{4-(morpholin-4-yl)-6-[4-(propan-2-yl)-1,4-diazepan-1-yl]-1,3,5-triazin-2-yl}phenyl)-3-[4-(piperazin-1-ylcarbonyl)phenyl]urea] | 3.5 | 22.5 | 
23 | CC(C)N1CCCN(c2nc(-c3ccc(NC(=O)Nc4ccc(C(=O)NCCCN(C)C)cc4)cc3)nc(N3CCOCC3)n2)CC1 [Example 857, N-[3-(dimethylamino)propyl]-4-{[(4-{4-(morpholin-4-yl)-6-[4-(propan-2-yl)-1,4-diazepan-1-yl]-1,3,5-triazin-2-yl}phenyl)carbamoyl]amino}benzamide] | 10 | 146 | 
